Test results: patent US5595730A, “Lactate dehydrogenase inhibitors in cosmetic compositions” (priority 1996, dated 1997)
Read-outs that look alike come from different tables or passages of the source.

Experiments:
[1] = test system: Fibroblast Lactate Dehydrogenase; test: Fibroblast lactate dehydrogenase (LDH) inhibition, cell lysate; assay type: biochemical, human
Experimental: (§1) All reagents were purchased from Sigma Chemical Co., St. Louis, Mo., USA. Sigma procedure No. 500 was modified for our purposes. One mL of pyruvate (pH=7.5) substrate (Sigma […]-1) was added to a vial containing 1 mg NADH (Sigma 340-101). In a 96-well plate, the following components were added to each test well: 10 μl pyruvate/NADH mixture, and 10 μl cell lysate. For preparation cell lysates, neonatal human keratinocytes or fibroblasts (Clonetic Corp., San Diego, Calif.) were cultured in tissue culture plates (Corning, USA). Cells were scraped in PBS (pH=7.4) and this solution was used as a source of L-lactate dehydrogenase. If such cell lysate was not available, a commercial preparation of L-lactic dehydrogenase (E.C.1.1.1.27), Sigma L9889, from porcine heart could be used in place of the cell lysate. For positive control, the inhibitor was replaced with 10 μl of PBS. For blank determination, the lysate or enzyme was replaced with […]. After mixing, the plate was incubated for 30 minutes at 37° C. Then 20 μl of color reagent (Sigma 505-2) was added to each well. After 20 minutes at room temperature, 150 μl of 0.4N NaOH was added, and the plate was read for absorbance at 490 nm in a Dynatech MR 7000 Microplate Reader. To calculate % inhibition, the control activity (CA) was first determined by subtracting the absorbance of the positive control from the blank. Then the activity in the presence of the inhibitor (IA) was calculated by subtracting the appropriate absorbance from the blank. % Inhibition was then calculated as: ((CA-IA)/CA)*100.

[2] = test system: Normal human epidermal keratinocytes (NHEK); test: Keratinocyte proliferation (DNA content, fluorometric); assay type: cell-based; settings: for activation at 313 µM / activation at 625 µM / activation at 1250 µM / activation at 2500 µM / activation at 5000 µM: Homo sapiens, NHEK, 72 h
Experimental: Normal human epidermal keratinocytes (NHEK) derived from neonatal foreskin were used for all experiments. Media were purchased from Clonetics Corp., San Diego, Calif. Cell stocks frozen in passage 2 were grown in Keratinocyte Growth Medium (KGM) and passaged when 70-80% confluent. Cells were seeded in 96 well plates (Corning) at a density of 7500 cells/well in KGM. After 24 hours, cells were rinsed and dosed with test compounds in 200 μl of Keratinocyte Basal Medium (KBM). Plates were incubated for three days at 37° C., 5% CO2. Cell proliferation was estimated by assaying for DNA content by a fluorometric method described by Rago et al. (Analytical Biochemistry, 191:31-34, 1990). Medium was removed and cells were rinsed with phosphate buffered saline solution. 100 μl of sterile distilled water was added to each well and plates were frozen at -70° C. for one and a half hours. Plates were thawed for one hour at which time 100 μl of a 20 ug/ml solution of Bisbenzimide H33258 fluorochrome (Calbiochem Corp., La Jolla, Calif.) was added to each well. The fluorochrome was prepared just prior to use in 10 mM Tris, 1 mM EDTA, 4M NaCI, pH 7.4. Plates were read in a Millipore Cytofluor fluorescent plate reader to quantify DNA (excitation 360 nm, emission 460 nm). Percent increase over control was calculated from blank-corrected readings as (treated-untreated)/(untreated)*100. Each data point in the Tables below represents a mean of 5 or 6 replicates.
The procedure of Example 2 was repeated except that various co-active ingredients were tested for their ability to stimulate keratinocyte proliferation.
The procedure of Example 2 was repeated to test the effect of combination of an LDH inhibitor with another carboxylic acid on keratinocyte proliferation.

[3] = test system: Keratinocyte Lactate Dehydrogenase; test: Keratinocyte lactate dehydrogenase (LDH) inhibition, cell lysate; assay type: biochemical, human
Experimental: as §1

[4] = Table 3, 0.313 mM, three days, read-out: Keratinocyte Proliferation (% increase over control)
[5] = Table 3, 0.625 mM, three days, read-out: Keratinocyte Proliferation (% increase over control)
[6] = Table 3, 1.25 mM, three days, read-out: Keratinocyte Proliferation (% increase over control)
[7] = Table 3, 2.5 mM, three days, read-out: Keratinocyte Proliferation (% increase over control)
[8] = Table 3, 5 mM, three days, read-out: Keratinocyte Proliferation (% increase over control)

Row | Compound | Fibroblast Lactate Dehydrogenase Inhibition (% Inhibition) ([1]; 0.625 mM) [%] | Fibroblast Lactate Dehydrogenase Inhibition (% Inhibition) ([1]; 1.25 mM) [%] | Fibroblast Lactate Dehydrogenase Inhibition (% Inhibition) ([1]; 2.5 mM) [%] | Fibroblast Lactate Dehydrogenase Inhibition (% Inhibition) ([1]; 5 mM) [%] | other results
1 | C[C@@H](O)C(=O)O [D-lactate] | 0 | 0 | 0 | 0 | –
2 | NCC(=O)O [Glycinate] | 0 | 0 | 0 | 0 | –
3 | O=C(O)CO [Glycolate] | 0 | 0 | 0 | 0 | –
4 | O=CC(=O)O [Glyoxylate] | – | – | – | – | activation at 313 µM [2, 4]: 33%; activation at 625 µM [2, 5]: 36%; activation at 1250 µM [2, 6]: 9%; activation at 2500 µM [2, 7]: 0%; activation at 5000 µM [2, 8]: 0%
5 | O=C(O)C(=O)C(=O)O [Ketomalonate] | – | – | – | – | activation at 313 µM [2, 4]: 23%; activation at 625 µM [2, 5]: 10%; activation at 1250 µM [2, 6]: 0%; activation at 2500 µM [2, 7]: 0%; activation at 5000 µM [2, 8]: 0%; Keratinocyte proliferation, % Increase Over Control ([2]; Table 7, single agent alone, 0.156 mM): 20%; Keratinocyte proliferation, % Increase Over Control ([2]; Table 7, single agent alone, 0.313 mM): 48%; Keratinocyte proliferation, % Increase Over Control ([2]; Table 7, single agent alone, 0.625 mM): 50%; Keratinocyte proliferation, % Increase Over Control ([2]; Table 7, single agent alone, 1.25 mM): 59%; Keratinocyte proliferation, % Increase Over Control ([2]; Table 7, single agent alone, 2.5 mM): 45%; Keratinocyte proliferation, % Increase Over Control ([2]; Table 7, single agent alone, 5.0 mM): 20%
6 | C[C@H](O)C(=O)O [L-lactate] | 0 | 0 | 0 | 0 | –
7 | O=C(O)C[C@H](O)C(=O)O [L-malate] | 0 | 0 | 0 | 0 | –
8 | O=C(O)CC(=O)O [Malonate] | 0 | 0 | 0 | 0 | –
9 | O=C(O)C(=O)O [Oxalate] | 54 | 71 | 85 | 89 | Keratinocyte Lactate Dehydrogenase Inhibition (% Inhibition) ([3]; 0.625 mM): 39%; Keratinocyte Lactate Dehydrogenase Inhibition (% Inhibition) ([3]; 1.25 mM): 58%; Keratinocyte Lactate Dehydrogenase Inhibition (% Inhibition) ([3]; 2.5 mM): 76%; Keratinocyte Lactate Dehydrogenase Inhibition (% Inhibition) ([3]; 5 mM): 87%; activation at 313 µM ([2]; read-out: Keratinocyte Proliferation (% increase over control), Table 3, 0.313 mM, three days): 18%; activation at 625 µM ([2]; read-out: Keratinocyte Proliferation (% increase over control), Table 3, 0.625 mM, three days): 27%; activation at 1250 µM ([2]; read-out: Keratinocyte Proliferation (% increase over control), Table 3, 1.25 mM, three days): 2%; activation at 2500 µM ([2]; read-out: Keratinocyte Proliferation (% increase over control), Table 3, 2.5 mM, three days): 0%; activation at 5000 µM ([2]; read-out: Keratinocyte Proliferation (% increase over control), Table 3, 5 mM, three days): 0%
10 | c1cn[nH]c1 [Pyrazole] | 0 | 0 | 0 | 0 | –
11 | O=C(O)C(O)C(=O)O [Tartronate] | – | – | – | – | activation at 313 µM [2, 4]: 37%; activation at 625 µM [2, 5]: 45%; activation at 1250 µM [2, 6]: 51%; activation at 2500 µM [2, 7]: 50%; activation at 5000 µM [2, 8]: 17%; Keratinocyte proliferation, % Increase Over Control ([2]; Table 8, single agent alone, 0.156 mM): 44%; Keratinocyte proliferation, % Increase Over Control ([2]; Table 8, single agent alone, 0.313 mM): 69%; Keratinocyte proliferation, % Increase Over Control ([2]; Table 8, single agent alone, 0.625 mM): 58%; Keratinocyte proliferation, % Increase Over Control ([2]; Table 8, single agent alone, 1.25 mM): 67%; Keratinocyte proliferation, % Increase Over Control ([2]; Table 8, single agent alone, 2.5 mM): 76%; Keratinocyte proliferation, % Increase Over Control ([2]; Table 8, single agent alone, 5.0 mM): 21%
12 | Methylpyrazole | 0 | 0 | 0 | 0 | –
